The target of one series is T1, Human NHE3 (Homo sapiens, UniProt P48764).
T1 construct: myc
T1 sequence (P48764 26-834): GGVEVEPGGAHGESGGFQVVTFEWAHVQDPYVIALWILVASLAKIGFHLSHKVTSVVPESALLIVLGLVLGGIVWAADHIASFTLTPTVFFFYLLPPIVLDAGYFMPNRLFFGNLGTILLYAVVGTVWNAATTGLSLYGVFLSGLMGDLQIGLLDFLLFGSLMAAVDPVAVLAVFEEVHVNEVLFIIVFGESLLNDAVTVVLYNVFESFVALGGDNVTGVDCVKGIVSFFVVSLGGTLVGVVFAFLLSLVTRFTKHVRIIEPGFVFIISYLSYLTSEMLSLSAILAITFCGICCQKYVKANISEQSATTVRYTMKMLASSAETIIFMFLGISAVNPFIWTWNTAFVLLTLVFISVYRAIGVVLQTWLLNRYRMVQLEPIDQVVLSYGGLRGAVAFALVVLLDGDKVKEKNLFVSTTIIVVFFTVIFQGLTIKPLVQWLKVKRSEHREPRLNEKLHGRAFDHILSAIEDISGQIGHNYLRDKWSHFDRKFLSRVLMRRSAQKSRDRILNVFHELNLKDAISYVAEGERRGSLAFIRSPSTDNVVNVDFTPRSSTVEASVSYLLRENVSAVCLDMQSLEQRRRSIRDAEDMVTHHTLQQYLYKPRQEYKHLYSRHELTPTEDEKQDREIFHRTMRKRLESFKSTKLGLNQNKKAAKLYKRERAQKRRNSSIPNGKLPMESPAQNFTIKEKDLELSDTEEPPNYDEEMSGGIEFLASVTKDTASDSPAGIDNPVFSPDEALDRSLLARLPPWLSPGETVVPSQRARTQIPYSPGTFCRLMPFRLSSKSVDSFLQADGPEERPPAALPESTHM
Kind of series: NHE3 activity assay (intracellular pH recovery, BCECF-AM) in human NHE3 over-expressing NHD C8 cells. It counts as cell-based. An excerpt:
Sodium hydrogen exchanger activity specific to NHE3 was achieved by overexpressing human NHE3 in an endogenously NHE-deficient cell line generated by chemical-induced mutagenesis. After the mutagenesis, NHE-deficient cells were selected by loading lithium into the cells and then exposing them to an acidic extracellular environment. Under these conditions, NHE exchanges intracellular lithium for extracellular protons, thus only NHE-deficient cells can avoid a toxic intracellular acidosis and survive. Dede cells (ATCC ccl-39), grown to 50% confluence in McCoy’s 5A medium (GE Healthcare) with 10% FBS and antibiotic/antimycotic solution (GE Healthcare) in a T75 flask, were treated with 500 μg/mL of EMS (ethyl methanesulfonate, Sigma-Aldrich) in medium for 20 hours for mutagenesis and washed twice with phosphate buffered saline (PBS). The cells were then trypsinized, plated in two T175 flasks and cultured in fresh medium without EMS for 2 days. […] The intracellular pH change is then measured by an intracellular pH-sensitive dye, 2’,7’-Bis-(2-carboxyethyl)-5(and-6)-carboxyfluorescein, acetoxymethyl ester (BCECF-AM, ThermoFisher Scientific) upon reintroduction of sodium. […] The plate was immediately read for fluorescence at the excitation wavelength of 505 nm and the emission wavelength of 550 nm using a kinetic method by Molecular Device, SpectraMax i3. […]

Series [1] in a line: Pharmacokinetics study after oral dosing. It counts as in vivo, rats. As to the method:
Following oral dosing of the free base from of LY3304000 in a vehicle of 1% Hydroxyethylcellulose, 0.25% Polysorbate 80, and 0.05% Antifoam in purified water, the level of LY3304000 in rat blood 2.5-hour post dose was below the limit of quantification of LY330400 (0.815 nM with LC/MS method). Further characterization of the pharmacokinetic properties of LY3304000 was hampered by an inability to identify an appropriate vehicle for IV dosing.

Structures are written as SMILES. Where “and” joins values, the source holds several entries; their conditions need not be identical. Equal entries are not always repeated.

The record followed here is paper PMC10817170, “Effect of an NHE3 inhibitor in combination with an NPT2b inhibitor on gastrointestinal phosphate absorption in Rodent models” (PLOS ONE, 2024).

Take `CN1Cc2c(Cl)cc(Cl)cc2[C@H](c2cccc(S(=O)(=O)NCCOCCOCCN/C(=N\C(N)=O)NCCCCN/C(=N/C(N)=O)NCCOCCOCCNS(=O)(=O)c3cccc([C@@H]4CN(C)Cc5c(Cl)cc(Cl)cc54)c3)c2)C1.Cl.Cl` [LY3304000, (Z)-[[4-[[(Z)-N’-carbamoyl-N-[2-[2-[2-[[3-[(4S)-6,8-dichloro-2-methyl-3,4-dihydro-1H-isoquinolin-4-yl]phenyl]sulfonylamino]ethoxy]ethoxy]ethyl]carbamimidoyl]amino]butylamino]-[2-[2-[2-[[3-[(4S)-6,8-dichloro-2-methyl-3,4-dihydro-1H-isoquinolin-4-yl]phenyl]sulfonylamino]ethoxy]ethoxy]ethylamino]methylene]urea dihydrochloride]: at Human NHE3 (4-parameter fit, representative curve), the “slope of the concentration-response curve” value stood at 0.8. Moreover, the IC50 against Human NHE3 (geometric mean of individual IC50, n=7) was 5.8 nM and 5.76 nM. Also, the “detection in plasma following oral dosing” value in series [1] (oral dosing) is “could not be detected”. For the same compound, the concentration at 2.5 h in series [1] (rat, whole blood, oral, free base, 2.5-hour post dose, below limit of quantification (LC/MS), read-out: level in rat blood) was below 0.815 nM.

For orientation: IC50 means the concentration that gives 50% inhibition. Low readings indicate higher potency, high ones lower potency.
